Results taken from publication PMC12079242, “Design, Synthesis, Biological Evaluation, and Molecular Docking Studies of Novel 1,3,4-Thiadiazole Derivatives Targeting Both Aldose Reductase and α-Glucosidase for Diabetes Mellitus” (ACS Omega, 2025).

Legend:
S. typhimurium TA mix = test: Ames II mutagenicity test, TA mix; type: cell-based, Salmonella typhimurium; conditions: for Average number of the positive wells: TA Mix; for mutagenicity: TA mix strain
Procedure: (§1) Ames II Mutagenicity Assay Kit BioReliance and Moltox (Moltox, Boone, NC) kit were used in the experiment and the experiment was performed completely according to the kit procedure.[68]S. typhimurium TA 98 (hisD3052) and TA mix (hisG1775, hisC9138, hisG9074, hisG9133, hisG9130, hisC9070) strains were incubated in 50 mL tubes containing 10 mL growth medium at 37 °C for 24 h. At the end of the time, the OD600 value of the suspension was measured. Since the OD600 value ≥ 2.0, the experimental procedure was continued. The dilutions of 10 μL of compound 6h at 75, 37.5, 18.75, 9.4, 4.7 μM and compound 6o at […] were prepared at 5 different concentrations of the test substances dissolved in DMSO. The exposure plates (24 wells) with and without the S9 enzyme fraction were prepared for both strains. The exposure medium, bacteria, and test substance were added to the plates without S9 enzyme fraction in the amounts specified in the procedure; S9 enzyme fraction was added to the plates containing S9 enzyme fraction and incubated at 37 °C, 250 rpm for 90 min with shaking. At the end of the incubation period, […] of purple colored indicator medium specific for bacterial strains was added to each well of the plate. 4-Nitroquinoline-N-Oxide (4-NQO) - 2-Nitrofluorene (2-NF), and 2-Aminoanthracene (2-AA) were used as positive control and only DMSO was used as negative control. The contents of 50 μL in each well were transferred to 384 plates according to the determined experimental design and incubated at 37 °C for 48 h. At the end of the incubation period, bacterial metabolism in the plates changes the pH and changes the purple color to yellow. The number of yellow wells formed at the end of the experiment was determined as positive wells and the genotoxic properties of the substances were interpreted. Means and SD values of positive wells were calculated.[69]

S. typhimurium TA 98 = test: Ames II mutagenicity test, TA 98; type: cell-based, Salmonella typhimurium
Procedure: as §1

[1] = biological target: α-Glucosidase from Saccharomyces cerevisiae; test: α-Glycosidase inhibition assay with pNPG substrate; type: biochemical; conditions: for Ki: Lineweaver–Burk plots, read-out: α-GLY KI; for IC50: mean ± SEM, read-out: α-GLY IC50
Procedure: α-Glucosidase activity (α-Glucosidase from Saccharomyces cerevisiae) was assessed using p-nitrophenyl-D-glycopyranoside (pNPG) as the substrate, following the procedure outlined by Tao et al.[60],[61] Initially, 100 μL of phosphate buffer was mixed with 20 μL of the enzyme solution (0.15 U/mL, pH 6.8) and 10–100 μL (0.01–1 mg/mL^–1) of the sample. To ensure complete enzyme inhibition, multiple solutions were prepared in phosphate buffer. The mixture was preincubated at 35 °C for 12 min before the reaction was initiated by adding pNPG. Subsequently, 50 μL of pNPG solution (5.0 mM, pH 7.4) was added and incubated at 37 °C. Absorbance was measured spectrophotometrically at 405 nm.
Furthermore, the types of inhibition and inhibition constants (KI) were calculated from Lineweaver–Burk plots, providing detailed insights into the kinetic properties of these inhibitors.[62],[63]

[2] = test system: L929 fibroblast cell line; test: MTT cell viability assay; type: cell-based; conditions: Mus musculus; L929, 24 h incubation, 5–100 μM
Procedure: Healthy mouse fibroblast cell line (L929) was obtained from ATCC (American Type Culture Collection) and studied. Cells were mixed with 89% DMEM (Dulbecco’s modified Eagle’s medium; Gibco, Thermo Fisher Scientific), 10% FBS (Fetal Bovine Serum; Sigma-Aldrich) and 1% penicillin (Sigma-Aldrich) solutions. The cells in which the medium was added were allowed to grow by incubating at 37 °C in an environment containing 95% humidity and 5% CO2.[66],[67]
The cytotoxic effects of all syntheses by MTT analysis on L929 cell line was investigated. 96-well plates were used for seeding cells. Approximately 1 × 10^4 cells were seeded in each well. Cells were allowed to adhere for 24 h and then the syntheses were applied at different concentrations (5–100 μM). After adding syntheses at different concentrations, the wells were incubated for 24 h. All wells without syntheses were used as controls. After the incubation, the wells were treated with MTT solution to determine metabolically active cells and incubated at 37 °C for 3 h. After the MTT interaction, the wells were emptied and DMSO solution was placed in them. The formazan crystals formed were dissolved with this solution and the number of viable cells in each well was determined by color change. The absorbance values were read at 540 nm with the help of a microplate and the values found were represented as mean ± standard deviation (±SD).[66],[67]

Nc1ccc2cc3ccccc3cc2c1 [2-AA, 2-Aminoanthracene, reference compound]
Average number of the positive wells (S. typhimurium TA mix; S9+, positive control): 16
Average number of the positive wells (S. typhimurium TA mix; S9–, positive control): 16
Average number of the positive wells (S. typhimurium TA 98; TA 98, S9+, positive control): 16
Average number of the positive wells (S. typhimurium TA 98; TA 98, S9–, positive control): 16

CCNc1nnc(SCC(=O)N(Cc2ccc([N+](=O)[O-])cc2)c2ccc(Cl)cc2)s1 [6a, N-(4-Chlororophenyl)-2-[(5-(ethylamino)-1,3,4-thiadiazol-2-yl)thio]-N-(4-nitrobenzyl) Acetamide]
Ki [1]: 11.9 ± 0.62 µM
IC50 [1]: 12.6 ± 0.75 µM

CC(C)CNc1nnc(SCC(=O)N(Cc2ccc([N+](=O)[O-])cc2)c2ccc(Cl)cc2)s1 [6e, N-(4-Chlororophenyl)-2-[(5-(isobutylamino)-1,3,4-thiadiazol-2-yl)thio]-N-(4-nitrobenzyl) Acetamide]
Ki [1]: 96.5 ± 6.15 µM
IC50 [1]: 99 ± 7.37 µM

O=C(CSc1nnc(NC2CCCCC2)s1)N(Cc1ccc([N+](=O)[O-])cc1)c1ccc(Cl)cc1 [6f, N-(4-Chlororophenyl)-2-[(5-(cyclohexylamino)-1,3,4-thiadiazol-2-yl)thio]-N-(4-nitrobenzyl) Acetamide]
Ki [1]: 342 ± 22.4 µM
IC50 [1]: 347 ± 18.3 µM

O=C(CSc1nnc(Nc2ccccc2)s1)N(Cc1ccc([N+](=O)[O-])cc1)c1ccc(Cl)cc1 [6g, N-(4-Chlororophenyl)-2-[(5-(phenylamino)-1,3,4-thiadiazol-2-yl)thio]-N-(4-nitrobenzyl) Acetamide]
Ki [1]: 12 ± 0.97 µM
IC50 [1]: 12.2 ± 0.87 µM
IC50 [2]: 99.5 ± 5.66 µM

Cc1ccc(Nc2nnc(SCC(=O)N(Cc3ccc([N+](=O)[O-])cc3)c3ccc(Cl)cc3)s2)cc1 [6h, N-(4-Chlororophenyl)-2-[(5-(4-methylphenylamino)-1,3,4-thiadiazol-2-yl)thio]-N-(4-nitrobenzyl) Acetamide]
Average number of the positive wells (S. typhimurium TA mix; S9+, 4.7 μM): 0
Average number of the positive wells (S. typhimurium TA mix; S9+, 9.4 μM): 0
Average number of the positive wells (S. typhimurium TA mix; S9+, 18.75 μM): 0
Average number of the positive wells (S. typhimurium TA mix; S9+, 37.5 μM): 0
Average number of the positive wells (S. typhimurium TA mix; S9+, 75 μM): 8
Average number of the positive wells (S. typhimurium TA mix; S9–, 4.7 μM): 0
Average number of the positive wells (S. typhimurium TA mix; S9–, 9.4 μM): 0
Average number of the positive wells (S. typhimurium TA mix; S9–, 18.75 μM): 0
Average number of the positive wells (S. typhimurium TA mix; S9–, 37.5 μM): 0
Average number of the positive wells (S. typhimurium TA mix; S9–, 75 μM): 5
mutagenicity (S. typhimurium TA mix; presence and absence of S9, 75 μM): mutagenicity was detected
Average number of the positive wells (S. typhimurium TA 98; TA 98, S9+, 4.7 μM): 0
Average number of the positive wells (S. typhimurium TA 98; TA 98, S9+, 9.4 μM): 0
Average number of the positive wells (S. typhimurium TA 98; TA 98, S9+, 18.75 μM): 0
Average number of the positive wells (S. typhimurium TA 98; TA 98, S9+, 37.5 μM): 0
Average number of the positive wells (S. typhimurium TA 98; TA 98, S9+, 75 μM): 0
Average number of the positive wells (S. typhimurium TA 98; TA 98, S9–, 4.7 μM): 0
Average number of the positive wells (S. typhimurium TA 98; TA 98, S9–, 9.4 μM): 0
Average number of the positive wells (S. typhimurium TA 98; TA 98, S9–, 18.75 μM): 0
Average number of the positive wells (S. typhimurium TA 98; TA 98, S9–, 37.5 μM): 0
Average number of the positive wells (S. typhimurium TA 98; TA 98, S9–, 75 μM): 0
Ki [1]: 4.48 ± 0.25 µM
IC50 [1]: 4.68 ± 0.23 µM

COCCNc1nnc(SCC(=O)N(Cc2ccc([N+](=O)[O-])cc2)c2ccc(F)cc2)s1 [6j, N-(4-Fluorophenyl)-2-[(5-((2-methoxyethyl)amino)-1,3,4-thiadiazol-2-yl)thio]-N-(4-nitrobenzyl) Acetamide]
Ki [1]: 15.9 ± 0.92 µM
IC50 [1]: 16.5 ± 0.93 µM

CCCNc1nnc(SCC(=O)N(Cc2ccc([N+](=O)[O-])cc2)c2ccc(F)cc2)s1 [6k, N-(4-Fluorophenyl)-2-[(5-(propylamino)-1,3,4-thiadiazol-2-yl)thio]-N-(4-nitrobenzyl) Acetamide]
IC50 [1]: > 500 µM

CC(C)Nc1nnc(SCC(=O)N(Cc2ccc([N+](=O)[O-])cc2)c2ccc(F)cc2)s1 [6l, N-(4-Fluorophenyl)-2-[(5-(isopropylamino)-1,3,4-thiadiazol-2-yl)thio]-N-(4-nitrobenzyl)acetamide]
IC50 [1]: > 500 µM

CCCCNc1nnc(SCC(=O)N(Cc2ccc([N+](=O)[O-])cc2)c2ccc(F)cc2)s1 [6m, N-(4-Fluorophenyl)-2-[(5-(butylamino)-1,3,4-thiadiazol-2-yl)thio]-N-(4-nitrobenzyl) Acetamide]
IC50 [1]: > 500 µM

O=C(CSc1nnc(NC2CCCCC2)s1)N(Cc1ccc([N+](=O)[O-])cc1)c1ccc(F)cc1 [6o, N-(4-Fluorophenyl)-2-[(5-(cyclohexylamino)-1,3,4-thiadiazol-2-yl)thio]-N-(4-nitrobenzyl)acetamide]
Average number of the positive wells (S. typhimurium TA mix; S9+, 3.125 nM): 0
Average number of the positive wells (S. typhimurium TA mix; S9+, 6.25 nM): 0
Average number of the positive wells (S. typhimurium TA mix; S9+, 12.5 nM): 0
Average number of the positive wells (S. typhimurium TA mix; S9+, 25 nM): 0
Average number of the positive wells (S. typhimurium TA mix; S9+, 50 nM): 15.3
Average number of the positive wells (S. typhimurium TA mix; S9–, 3.125 nM): 0
Average number of the positive wells (S. typhimurium TA mix; S9–, 6.25 nM): 0
Average number of the positive wells (S. typhimurium TA mix; S9–, 12.5 nM): 0
Average number of the positive wells (S. typhimurium TA mix; S9–, 25 nM): 0
Average number of the positive wells (S. typhimurium TA mix; S9–, 50 nM): 15.3
mutagenicity (S. typhimurium TA mix; presence and absence of S9, 50 nM): mutagenicity was detected
Average number of the positive wells (S. typhimurium TA 98; TA 98, S9+, 3.125 nM): 0
Average number of the positive wells (S. typhimurium TA 98; TA 98, S9+, 6.25 nM): 0
Average number of the positive wells (S. typhimurium TA 98; TA 98, S9+, 12.5 nM): 0
Average number of the positive wells (S. typhimurium TA 98; TA 98, S9+, 25 nM): 0
Average number of the positive wells (S. typhimurium TA 98; TA 98, S9+, 50 nM): 0
Average number of the positive wells (S. typhimurium TA 98; TA 98, S9–, 3.125 nM): 0
Average number of the positive wells (S. typhimurium TA 98; TA 98, S9–, 6.25 nM): 0
Average number of the positive wells (S. typhimurium TA 98; TA 98, S9–, 12.5 nM): 0
Average number of the positive wells (S. typhimurium TA 98; TA 98, S9–, 25 nM): 0
Average number of the positive wells (S. typhimurium TA 98; TA 98, S9–, 50 nM): 0
Ki [1]: 12.5 ± 1.08 µM
IC50 [1]: 34.6 ± 1.78 µM

O=C(CSc1nnc(Nc2ccccc2)s1)N(Cc1ccc([N+](=O)[O-])cc1)c1ccc(F)cc1 [6p, N-(4-Fluorophenyl)-2-[(5-(phenylamino)-1,3,4-thiadiazol-2-yl)thio]-N-(4-nitrobenzyl)acetamide]
Ki [1]: 8.38 ± 0.12 µM
IC50 [1]: 8.25 ± 0.56 µM

Cc1ccc(Nc2nnc(SCC(=O)N(Cc3ccc([N+](=O)[O-])cc3)c3ccc(F)cc3)s2)cc1 [6q, N-(4-Fluorophenyl)-2-[(5-(4-methylphenylamino)-1,3,4-thiadiazol-2-yl)thio]-N-(4-nitrobenzyl) Acetamide]
Ki [1]: 7.86 ± 0.62 µM
IC50 [1]: 8.15 ± 0.48 µM
